21 compounds from patent US20040248887A1, “Inhibitors of cathepsin S” (IRM LLC, priority 2003, published 2004) can be followed below.

The target of the assay is Cathepsin S (Homo sapiens, UniProt P25774). The assay is described as follows: Cathepsin S inhibition, fluorogenic peptide substrate kinetic assay. The assay is classed as biochemical. Particulars: Table II; Cathepsin S inhibition constant, pH5.5; read-out: Ki Cat. S. The source says:
“Inhibition constant”, Ki, is the dissociation constant of the enzyme-inhibitor complex, or the reciprocal of the binding affinity of the inhibitor to the enzyme. […] The inhibited rates are then fit by nonlinear regression to the following equation: [formula]
where vo is the initial rate of substrate processing in the absence of inhibitor, v; is the initial rate of substrate processing at a concentration [I] of inhibitor, Km is the steady state Michaelis constant (Fersht, A. Structure and Mechanism in Protein Science. New York, W.H. Freeman and Company, 1999), and [S] is the concentration of competitive substrate.
The assumption being made for the classical inhibition described above is that the free inhibitor concentration is equal to the total inhibitor concentration.
The inhibition constant, Ki, can be determined from the apparent inhibition constant, Ki^app, for competitive inhibitors by using the following relationship: [formula]
The optimal substrate for cathepsin S, acetyl-histidine-proline-valine-lysine-amino carbamoyl coumarin, was identified from screening a combinatorial library of fluorogenic peptide substrates (Harris, J. L., B. J. Backes, et al., Proc Natl Acad Sci USA 2000, 97(14), 7754-9). Kinetic measurements are performed in a total reaction volume of 30 μl in 384-well microtiter plates. […] The reactions are initiated by adding the substrate, acetyl-histidine-proline-valine-lysine-amino carbamoyl coumarin, to a final concentration of 50 μM. The rate of substrate hydrolysis is measured by monitoring the increase in fluorescence at an excitation wavelength of 380 nm and an emission wavelength of 450 nm that results from cleavage of the aniline bond in the substrate by the enzyme. The apparent inhibition constants for the compounds are determined from the enzyme progress curves (Kuzmic, P., K. C. Elrod, et al., Anal Biochem 2000, 286(1), 45-50) and are then used to calculate the inhibition constants for competitive inhibitors.

As a reminder, the Ki is a measure of affinity in units of concentration, obtained from inhibition or displacement.

Where only a bound is given, the exact number is not on record here.

Cathepsin S, sequence (P25774 115-331, species assumed): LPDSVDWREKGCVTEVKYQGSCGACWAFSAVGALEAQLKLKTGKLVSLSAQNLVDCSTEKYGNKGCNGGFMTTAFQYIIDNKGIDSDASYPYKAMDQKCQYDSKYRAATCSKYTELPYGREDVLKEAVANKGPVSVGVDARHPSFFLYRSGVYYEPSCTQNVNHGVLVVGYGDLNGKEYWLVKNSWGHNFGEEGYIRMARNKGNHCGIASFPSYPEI

As to `O=C(NC(C(=O)N[C@@H](COCc1ccccc1)CN1CCc2cc(F)ccc21)c1ccc(Cl)cc1Cl)c1ccco1` (mixture of isomers) [Compound 207, N-(R,S)-((3-(benzyloxy)-1-(5-fluoroindolin-1-yl)propan-2-(R)-ylcarbamoyl)(2,4-dichlorophenyl)methyl)furan-2-carboxamide], the Ki is less than 100 nM.
To `CC(C(=O)N[C@@H](CC1CCCCC1)C(=O)NCCN1CCc2cc(F)ccc21)c1ccc(-c2ccccc2)c(F)c1` (stereo partly drawn) [Compound 59, N-{2-cyclohexyl-1-(S)-[2-(5-fluoro-2,3-dihydro-indol-1-yl)-ethylcarbamoyl]-ethyl}-2-(2-fluoro-biphenyl-4-yl)-propionamide] belongs less than 100 nM; to `C[C@@H](CNc1ccc2c(c1)C(=O)OC2)NC(=O)[C@H](CC1CCCCC1)NC(=O)c1ccc(-c2cccc(F)c2)o1` [Compound 137, 5-(3-Fluoro-phenyl)-furan-2-carboxylic acid {2-cyclohexyl-1-(S)-[1-(S)-methyl-2-(3-oxo-1,3-dihydro-isobenzofuran-5-ylamino)-ethylcarbamoyl]-ethyl}-amide], less than 100 nM; to `O=C(N[C@@H](CC1CCCCC1)C(=O)N[C@@H](COCc1ccccc1)CN1CCc2cc(F)ccc21)OCc1ccccc1` [Compound 169], less than 100 nM.
On to `COc1cccc(S(=O)(=O)N[C@@H](CC2CCCCC2)C(=O)NCCN2CCc3cc(F)ccc32)c1` [Compound 245, (S)-3-Cyclohexyl-N-[2-(5-fluoro-2,3-dihydro-indol-1-yl)-ethyl]-2-(3-methoxy-benzenesulfonylamino)-propionamide], for which the Ki is less than 1000 nM.
Under `O=C(NCCN1CCc2cc(F)ccc21)[C@H](CC1CCCCC1)NS(=O)(=O)Cc1ccccc1` [Compound 242, (S)-3-Cyclohexyl-N-[2-(5-fluoro-2,3-dihydro-indol-1-yl)-ethyl]-2-phenylmethanesulfonylamino-propionamide] stands less than 10000 nM.
To `O=C(NC(C(=O)NC(CO)CN1CCc2cc(F)ccc21)c1ccc(Cl)cc1Cl)c1ccco1` [Compound 209, N-(S)-((3-(5-fluoroindolin-1-yl)-1-hydroxypropan-2-(R)-ylcarbamoyl)(2,4-dichlorophenyl)methyl)furan-2-carboxamide] belongs less than 100 nM; to `O=C(N[C@@H](CC1CCCCC1)C(=O)NCCN1CCc2cc(F)ccc21)C1CCN(C(=O)c2ccccc2)CC1` [Compound 5, 1-Benzoyl-piperidine-4-carboxylic acid (S)-{2-cyclohexyl-1-[2-(5-fluoro-2,3-dihydro-indol-1-yl)-ethylcarbamoyl]-ethyl}-amide], less than 1000 nM.
To `COc1cccc(C(=O)N[C@@H](CC(C)(C)C)C(=O)N[C@@H](CC(=O)OC(C)(C)C)CN2CCc3cc(F)ccc32)c1` [Compound 160, 4-(5-Fluoro-2,3-dihydro-indol-1-yl)-3-(S)-[2-(S)-(3-methoxy-benzoylamino)-4,4-dimethyl-pentanoylamino]-butyric acid tert-butyl ester] belongs less than 100 nM; to `Cc1cccc(S(=O)(=O)N[C@@H](CC(C)(C)C)C(=O)N[C@@H](CC(=O)O)CN2CCc3cc(F)ccc32)c1` [Compound 262, (S,S)-3-[4,4-Dimethyl-2-(toluene-3-sulfonylamino)-pentanoylamino]-4-(5-fluoro-2,3-dihydro-indol-1-yl)-butyric acid], less than 100 nM; to `CC(C)(C)C[C@H](NC(=O)OC(C)(C)C)C(=O)N[C@@H](COCc1ccccc1)CN1CCc2cc(F)ccc21` [Compound 154, {1-(S)-[1-(R)-Benzyloxymethyl-2-(5-fluoro-2,3-dihydro-indol-1-yl)-ethylcarbamoyl]-3,3-dimethyl-butyl}-carbamic acid tert-butyl ester], less than 100 nM.
`C[C@@H](CNc1cc(F)ccc1Cl)NC(=O)[C@H](CC1CCCCC1)NC(=O)c1ccc(-c2cccc(F)c2)o1` [Compound 112, 5-(3-Fluoro-phenyl)-furan-2-carboxylic acid {1-(S)-[2-(2-chloro-5-fluoro-phenylamino)-1-(S)-methyl-ethylcarbamoyl]-2-cyclohexyl-ethyl}-amide]: the Ki was less than 1000 nM.
Turning to `CS(=O)(=O)c1cccc(C(=O)N[C@@H](CC2CCCCC2)C(=O)NCCN2CCc3cc(F)ccc32)c1` [Compound 80, N-(S)-{2-cyclohexyl-1-[2-(5-fluoro-2,3-dihydro-indol-1-yl)-ethylcarbarnoyl]-ethyl}-3-methanesulfonyl-benzamide], the Ki was less than 100 nM.
To `Cc1cccc(C(=O)N[C@@H](Cc2ccc(Cl)cc2)C(=O)NCCN2CCc3cc(F)ccc32)c1` [Compound 199, N-((S)-1-(2-(5-fluoroindolin-1-yl)ethylcarbamoyl)-2-(4-chlorophenyl)ethyl)-3-methylbenzamide] belongs less than 100 nM.
Under `O=C(N[C@@H](CC1CCCCC1)C(=O)NCCN1CCc2cc(F)ccc21)c1ccc(-c2ccccc2)s1` [Compound 82, 5-Phenyl-thiophene-2-carboxylic acid (S)-{2-cyclohexyl-1-[2-(5-fluoro-2,3-dihydro-indol-1-yl)-ethylcarbamoyl]-ethyl}-amide] stands less than 100 nM; under `C[C@@H](CNc1ccc(OC(F)(F)F)cc1)NC(=O)[C@H](CC1CCCCC1)NC(=O)O[C@@H]1CCN(C(=O)OC(C)(C)C)C1` [Compound 185, 3-(R)-{2-Cyclohexyl-1-(S)-[1-(S)-methyl-2-(4-trifluoromethoxy-phenylamino)-ethylcarbamoyl]-ethylcarbamoyloxy}-pyrrolidine-1-carboxylic acid tert-butyl ester], less than 1000 nM; under `Cc1occ(C(F)(F)F)c1S(=O)(=O)N[C@@H](CC1CCCCC1)C(=O)N[C@@H](C)CN1CCc2cc(F)ccc21` [Compound 253, (S,S)-3-Cyclohexyl-N-[2-(5-fluoro-2,3-dihydro-indol-1-yl)-1-methyl-ethyl]-2-(2-methyl-4-trifluoromethyl-furan-3-sulfonylamino)-propionamide], less than 100 nM.
For `Cc1cc(NC[C@H](C)NC(=O)[C@H](CC2CCCCC2)NC(=O)c2ccc(-c3cccc(F)c3)o2)sn1` [Compound 267, 5-(3-Fluoro-phenyl)-furan-2-carboxylic acid {2-cyclohexyl-1-(S)-[1-(S)-methyl-2-(3-methyl-isothiazol-5-ylamino)-ethylcarbamoyl]-ethyl}-amide], the Ki was less than 1000 nM.
To `COc1cccc(C(=O)N[C@@H](CCC2CCCCC2)C(=O)NCCN2CCc3c(OC)cccc32)c1` [Compound 15, (S)-N-{3-Cyclohexyl-1-[2-(4-methoxy-2,3-dihydro-indol-1-yl)-ethylcarbamoyl]-propyl}-3-methoxy-benzamide] belongs less than 10000 nM; to `CC(C)(C)C[C@H](NC(=O)c1ccc(-c2cccc(C(F)(F)F)c2)o1)C(=O)NCCN1CCc2cc(F)ccc21` [Compound 202, N-((S)-1-(2-(5-fluoroindolin-1-yl)ethylcarbamoyl)-3,3-dimethylbutyl)-5-(3-(trifluoromethyl)phenyl)furan-2-carboxamide], less than 100 nM.
With `O=C(N[C@@H](CC1CCCCC1)C(=O)NCCN1CCc2cc(F)ccc21)C1CC(=O)N(Cc2ccco2)C1` (stereo partly drawn) [Compound 74, 1-Furan-2-ylmethyl-5-oxo-pyrrolidine-3-carboxylic acid (S)-{2-cyclohexyl-1-[2-(5-fluoro-2,3-dihydro-indol-1-yl)-ethylcarbamoyl]-ethyl}-amide], the Ki is less than 1000 nM.
